Source: patent US9340590B2 (priority 2011, dated 2016)
Where two headings read alike, the source gives them in different places. Positions of bridges follow the written chain, without caps; N, C: chain ends. Non-standard residues stand in square brackets, D forms with d. Residues, ends and D or L forms follow the SMILES beside them. hCit = NC(=O)NCCCC[C@H](N)C(=O)O; Pra = C#CC[C@H](N)C(=O)O

Tests used:
Experiment in all cases: cell-based
hNav1.3 = hNav1.3 (Homo sapiens, UniProt Q9NY46); settings: IonWorks Quattro, read-out: IWQ Use Nav1.3
hNav1.7 = hNav1.7 (Homo sapiens, UniProt Q15858); format: cell-based; settings: IonWorks Quattro, read-out: IWQ Use Nav1.7
hNav1.5 = hNav1.5 (Homo sapiens, UniProt Q14524); settings: IonWorks Quattro, read-out: IWQ Use Nav1.5
[1] = clamped to −110 mV, depolarized to −10 mV, 5 min after compound, n=2

Sequence of hNav1.7 (Q15858 whole entry, looked up): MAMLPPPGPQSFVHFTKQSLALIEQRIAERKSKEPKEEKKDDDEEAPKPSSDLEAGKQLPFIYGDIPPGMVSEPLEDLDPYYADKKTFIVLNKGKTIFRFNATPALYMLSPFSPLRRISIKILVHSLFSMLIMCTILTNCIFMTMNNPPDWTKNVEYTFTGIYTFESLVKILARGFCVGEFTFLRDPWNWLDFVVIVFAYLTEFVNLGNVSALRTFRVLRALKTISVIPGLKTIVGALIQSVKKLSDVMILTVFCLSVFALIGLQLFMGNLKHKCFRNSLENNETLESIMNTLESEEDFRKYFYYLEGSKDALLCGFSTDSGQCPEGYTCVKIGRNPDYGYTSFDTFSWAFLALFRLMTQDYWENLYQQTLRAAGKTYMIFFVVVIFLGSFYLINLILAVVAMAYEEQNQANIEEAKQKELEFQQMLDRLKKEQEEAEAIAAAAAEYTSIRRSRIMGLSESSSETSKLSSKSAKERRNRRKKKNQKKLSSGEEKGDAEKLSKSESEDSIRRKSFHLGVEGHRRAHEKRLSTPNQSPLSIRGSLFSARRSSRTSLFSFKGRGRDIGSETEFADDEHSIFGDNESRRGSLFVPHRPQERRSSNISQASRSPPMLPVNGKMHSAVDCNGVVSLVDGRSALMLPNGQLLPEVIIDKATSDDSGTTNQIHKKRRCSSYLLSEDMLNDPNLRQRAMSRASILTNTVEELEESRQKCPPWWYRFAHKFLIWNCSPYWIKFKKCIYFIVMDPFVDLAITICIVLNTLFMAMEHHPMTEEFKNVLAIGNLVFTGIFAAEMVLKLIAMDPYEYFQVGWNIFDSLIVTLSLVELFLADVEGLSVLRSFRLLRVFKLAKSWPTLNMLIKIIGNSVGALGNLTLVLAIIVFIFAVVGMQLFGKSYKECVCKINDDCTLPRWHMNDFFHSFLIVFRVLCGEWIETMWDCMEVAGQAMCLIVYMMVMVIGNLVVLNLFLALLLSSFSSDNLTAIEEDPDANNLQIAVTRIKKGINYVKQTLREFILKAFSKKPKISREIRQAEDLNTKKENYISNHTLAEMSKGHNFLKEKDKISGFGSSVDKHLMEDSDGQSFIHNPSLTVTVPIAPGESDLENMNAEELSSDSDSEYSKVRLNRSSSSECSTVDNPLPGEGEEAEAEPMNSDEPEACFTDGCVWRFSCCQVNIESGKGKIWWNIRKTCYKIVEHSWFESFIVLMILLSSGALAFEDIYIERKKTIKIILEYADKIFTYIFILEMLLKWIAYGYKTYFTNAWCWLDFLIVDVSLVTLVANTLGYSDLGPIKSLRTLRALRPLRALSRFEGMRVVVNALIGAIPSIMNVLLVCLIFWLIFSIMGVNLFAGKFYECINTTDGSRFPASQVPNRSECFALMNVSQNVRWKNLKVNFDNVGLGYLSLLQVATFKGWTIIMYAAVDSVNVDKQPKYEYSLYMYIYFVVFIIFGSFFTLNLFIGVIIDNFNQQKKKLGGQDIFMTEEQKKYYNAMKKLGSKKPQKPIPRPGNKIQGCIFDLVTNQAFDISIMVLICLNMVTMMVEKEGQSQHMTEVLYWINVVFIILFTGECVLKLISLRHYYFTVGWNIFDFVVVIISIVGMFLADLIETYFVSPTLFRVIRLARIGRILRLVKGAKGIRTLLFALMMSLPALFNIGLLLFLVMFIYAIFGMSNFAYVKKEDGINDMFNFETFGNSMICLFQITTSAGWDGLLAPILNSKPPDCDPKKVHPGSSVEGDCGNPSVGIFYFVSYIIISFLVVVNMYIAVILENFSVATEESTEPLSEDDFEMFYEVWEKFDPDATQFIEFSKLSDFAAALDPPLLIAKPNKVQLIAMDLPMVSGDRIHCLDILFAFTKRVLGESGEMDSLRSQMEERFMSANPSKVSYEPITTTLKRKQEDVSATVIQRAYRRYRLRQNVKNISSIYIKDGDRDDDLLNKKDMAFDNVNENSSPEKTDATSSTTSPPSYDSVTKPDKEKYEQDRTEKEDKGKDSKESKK
Sequence of hNav1.3 (Q9NY46 whole entry, looked up): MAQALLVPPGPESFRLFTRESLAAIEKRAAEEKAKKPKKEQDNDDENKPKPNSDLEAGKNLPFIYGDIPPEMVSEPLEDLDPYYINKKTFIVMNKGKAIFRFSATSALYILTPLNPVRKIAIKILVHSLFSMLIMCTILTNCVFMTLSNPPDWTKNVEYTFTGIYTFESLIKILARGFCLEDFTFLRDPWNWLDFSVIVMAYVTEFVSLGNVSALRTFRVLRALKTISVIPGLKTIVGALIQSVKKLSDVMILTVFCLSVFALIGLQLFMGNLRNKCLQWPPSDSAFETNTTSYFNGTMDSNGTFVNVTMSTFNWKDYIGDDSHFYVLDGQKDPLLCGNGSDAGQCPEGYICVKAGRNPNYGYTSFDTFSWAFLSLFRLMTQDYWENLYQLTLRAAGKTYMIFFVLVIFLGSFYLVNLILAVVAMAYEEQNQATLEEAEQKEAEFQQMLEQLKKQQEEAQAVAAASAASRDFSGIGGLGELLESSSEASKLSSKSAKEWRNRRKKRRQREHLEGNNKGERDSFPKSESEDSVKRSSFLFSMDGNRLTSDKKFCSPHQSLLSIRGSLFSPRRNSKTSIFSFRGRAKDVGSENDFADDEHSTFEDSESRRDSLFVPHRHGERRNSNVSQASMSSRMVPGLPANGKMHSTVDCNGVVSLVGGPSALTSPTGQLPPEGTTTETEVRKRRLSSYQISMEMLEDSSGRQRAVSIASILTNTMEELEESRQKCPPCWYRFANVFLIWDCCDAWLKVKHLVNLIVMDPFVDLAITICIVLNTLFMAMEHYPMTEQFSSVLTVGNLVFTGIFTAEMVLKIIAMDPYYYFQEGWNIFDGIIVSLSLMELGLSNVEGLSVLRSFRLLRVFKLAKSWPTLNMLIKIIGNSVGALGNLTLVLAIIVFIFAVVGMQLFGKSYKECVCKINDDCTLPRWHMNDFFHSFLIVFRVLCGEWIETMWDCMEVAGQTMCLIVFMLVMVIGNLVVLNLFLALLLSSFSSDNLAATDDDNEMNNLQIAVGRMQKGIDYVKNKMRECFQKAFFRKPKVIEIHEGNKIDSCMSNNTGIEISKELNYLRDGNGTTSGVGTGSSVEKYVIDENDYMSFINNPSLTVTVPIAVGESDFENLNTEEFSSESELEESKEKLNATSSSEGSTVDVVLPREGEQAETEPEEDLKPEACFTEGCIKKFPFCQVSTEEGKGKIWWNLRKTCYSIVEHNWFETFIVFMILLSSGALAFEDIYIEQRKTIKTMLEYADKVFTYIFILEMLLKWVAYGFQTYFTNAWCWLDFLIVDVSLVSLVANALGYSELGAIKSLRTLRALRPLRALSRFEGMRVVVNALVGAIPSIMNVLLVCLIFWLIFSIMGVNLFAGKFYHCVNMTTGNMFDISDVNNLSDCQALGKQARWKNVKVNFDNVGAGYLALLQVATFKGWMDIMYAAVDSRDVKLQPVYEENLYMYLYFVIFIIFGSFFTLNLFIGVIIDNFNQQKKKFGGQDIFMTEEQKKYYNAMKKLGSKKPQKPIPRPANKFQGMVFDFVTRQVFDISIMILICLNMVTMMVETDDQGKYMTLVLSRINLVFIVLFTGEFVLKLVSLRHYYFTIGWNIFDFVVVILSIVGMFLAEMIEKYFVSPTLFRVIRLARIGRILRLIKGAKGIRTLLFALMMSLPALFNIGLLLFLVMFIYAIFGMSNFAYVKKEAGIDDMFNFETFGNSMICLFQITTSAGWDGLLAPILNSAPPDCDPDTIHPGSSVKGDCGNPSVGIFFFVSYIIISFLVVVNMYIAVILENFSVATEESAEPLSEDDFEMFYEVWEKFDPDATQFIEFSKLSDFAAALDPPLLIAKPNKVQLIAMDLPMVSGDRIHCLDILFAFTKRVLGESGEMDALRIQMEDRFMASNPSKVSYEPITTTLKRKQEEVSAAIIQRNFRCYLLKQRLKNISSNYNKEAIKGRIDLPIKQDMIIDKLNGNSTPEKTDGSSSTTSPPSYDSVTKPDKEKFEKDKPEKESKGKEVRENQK

CC[C@H](C)[C@@H]1NC(=O)[C@@H]2CSSC[C@@H]3NC(=O)[C@H](C(C)C)NC(=O)[C@H](CC(C)C)NC(=O)[C@H](CC(N)=O)NC(=O)[C@@H]4CCCN4C(=O)[C@H](CCCNC(=N)N)NC(=O)[C@H](CSSC[C@H](NC(=O)[C@@H](N)CC(=O)O)C(=O)N[C@@H](CC(C)C)C(=O)NCC(=O)N[C@@H](Cc4ccccc4)C(=O)N(C)[C@@H](Cc4c[nH]c5ccccc45)C(=O)N[C@@H](CCCNC(=N)N)C(=O)N[C@@H](CCCCN)C(=O)N2)NC(=O)[C@H](CSSC[C@@H](C(=O)N[C@@H](CCCCN)C(=O)N[C@@H](Cc2ccc(O)cc2)C(=O)N[C@H](C(=O)N[C@@H](Cc2ccccc2)C(N)=O)C(C)C)NC(=O)[C@H](Cc2c[nH]c4ccccc24)NC(=O)[C@H](CCCCN)NC(=O)[C@H](Cc2c[nH]cn2)NC(=O)[C@H]([C@@H](C)O)NC(=O)[C@H](CCCNC(=N)N)NC(=O)[C@H](CO)NC3=O)NC(=O)[C@H](CCCCN)NC(=O)[C@H](CC(=O)O)NC(=O)[C@H](CC(N)=O)NC(=O)[C@H](CC(=O)O)NC(=O)[C@@H]2CCCN2C1=O [SEQ ID NO: 289]
IC50 (hNav1.3; [1]): 240 nM
IC50 (hNav1.7; [1]): 140 nM
IC50 (hNav1.5; [1]): 21400 nM

CC[C@H](C)[C@@H]1NC(=O)[C@@H]2CSSC[C@@H]3NC(=O)[C@H](C(C)C)NC(=O)[C@H](CC(C)C)NC(=O)[C@H](CC(N)=O)NC(=O)[C@@H]4CCCN4C(=O)[C@H](CCCNC(=N)N)NC(=O)[C@H](CSSC[C@H](NC(=O)[C@H](CC(=O)O)NC(=O)[C@H](CO)NC(=O)CN)C(=O)N[C@@H](CC(C)C)C(=O)NCC(=O)N[C@@H](C)C(=O)N[C@@H](Cc4ccccc4)C(=O)N[C@@H](CCCNC(=N)N)C(=O)N[C@@H](CCCCN)C(=O)N2)NC(=O)[C@H](CSSC[C@@H](C(=O)N[C@@H](CCCCN)C(=O)N[C@@H](Cc2ccc(O)cc2)C(=O)N[C@H](C(=O)N[C@@H](Cc2ccccc2)C(=O)N[C@@H](Cc2c[nH]c4ccccc24)C(=O)O)C(C)C)NC(=O)[C@H](Cc2c[nH]c4ccccc24)NC(=O)[C@H](CCCNC(=N)N)NC(=O)[C@H](Cc2c[nH]cn2)NC(=O)[C@H]([C@@H](C)O)NC(=O)[C@H](CCCNC(=N)N)NC(=O)[C@H](CO)NC3=O)NC(=O)[C@H](CCCCN)NC(=O)[C@H](CC(=O)O)NC(=O)[C@H](CC(N)=O)NC(=O)[C@H](CC(=O)O)NC(=O)[C@@H]2CCCN2C1=O [compound 815] (H-GSDCLGAFRKCIPDNDKCCRPNLVCSRTHRWCKYVFW-OH; disulfide 4-19, 11-25, 18-32)
IC50 (hNav1.3; use-dependent block, hNav1.3): > 5000 nM
IC50 (hNav1.7; use-dependent block, hNav1.7): > 5000 nM
IC50 (hNav1.5; use-dependent block, hNav1.5): > 5000 nM

CC[C@H](C)[C@@H]1NC(=O)[C@@H]2CSSC[C@@H]3NC(=O)[C@H](C(C)C)NC(=O)[C@H](CC(C)C)NC(=O)[C@H](CC(N)=O)NC(=O)[C@@H]4CCCN4C(=O)[C@H](CCCNC(=N)N)NC(=O)[C@H](CSSC[C@H](NC(=O)[C@@H](N)CC(=O)O)C(=O)N[C@@H](CC(C)C)C(=O)NCC(=O)N[C@@H](Cc4ccccc4)C(=O)N[C@@H](CCSC)C(=O)N[C@@H](CCCNC(=N)N)C(=O)N[C@@H](CCCCN)C(=O)N2)NC(=O)[C@H](CSSC[C@@H](C(=O)N[C@@H](CCCCN)C(=O)N[C@@H](Cc2ccc(O)cc2)C(=O)N[C@H](C(=O)N[C@@H](Cc2ccccc2)C(N)=O)C(C)C)NC(=O)[C@H](Cc2c[nH]c4ccccc24)NC(=O)[C@H](CCCCN)NC(=O)[C@H](Cc2cnc[nH]2)NC(=O)[C@H]([C@@H](C)O)NC(=O)[C@H](CCCNC(=N)N)NC(=O)[C@H](CO)NC3=O)NC(=O)[C@H](CCCCN)NC(=O)[C@H](CC(=O)O)NC(=O)[C@H](Cc2c[nH]c3ccccc23)NC(=O)[C@H](CC(=O)O)NC(=O)[C@@H]2CCCN2C1=O [compound 173] (H-DCLGFMRKCIPDWDKCCRPNLVCSRTHKWCKYVF-NH2; disulfide 2-17, 9-23, 16-30)
IC50 (hNav1.3; Use): 50 nM
IC50 (hNav1.7; Use): 90 nM
IC50 (hNav1.5; Use): 17300 nM

C#CC[C@@H]1NC(=O)[C@H](CC(=O)O)NC(=O)[C@@H]2CCCN2C(=O)[C@H]([C@@H](C)CC)NC(=O)[C@@H]2CSSC[C@@H]3NC(=O)[C@H](C(C)C)NC(=O)[C@H](CC(C)C)NC(=O)[C@H](CC(N)=O)NC(=O)[C@@H]4CCCN4C(=O)[C@H](CCCNC(=N)N)NC(=O)[C@H](CSSC[C@H](NC(=O)[C@@H](N)CC(=O)O)C(=O)N[C@@H](CC(C)C)C(=O)NCC(=O)N[C@@H](C)C(=O)N[C@@H](Cc4ccccc4)C(=O)N[C@@H](CCCNC(=N)N)C(=O)N[C@@H](CCCCN)C(=O)N2)NC(=O)[C@H](CSSC[C@@H](C(=O)N[C@@H](CCCCN)C(=O)N[C@@H](Cc2ccc(O)cc2)C(=O)N[C@H](C(=O)N[C@@H](Cc2ccccc2)C(N)=O)C(C)C)NC(=O)[C@H](Cc2c[nH]c4ccccc24)NC(=O)[C@H](CCCNC(=N)N)NC(=O)[C@H](Cc2c[nH]cn2)NC(=O)[C@H](CC(C)C)NC(=O)[C@H](CCCNC(=N)N)NC(=O)[C@H](CO)NC3=O)NC(=O)[C@H](CCCCN)NC(=O)[C@H](CC(=O)O)NC1=O [compound 640] (H-DCLGAFRKCIPD[Pra]DKCCRPNLVCSRLHRWCKYVF-NH2; disulfide 2-17, 9-23, 16-30)
IC50 (hNav1.3; use-dependent protocol, hNav1.3): 90 nM
IC50 (hNav1.7; use-dependent protocol, hNav1.7): 103 nM
IC50 (hNav1.5; use-dependent protocol, hNav1.5): > 5000 nM

CC[C@H](C)[C@@H]1NC(=O)[C@@H]2CSSC[C@@H]3NC(=O)[C@H](C(C)C)NC(=O)[C@H](CC(C)C)NC(=O)[C@H](CC(N)=O)NC(=O)[C@@H]4CCCN4C(=O)[C@H](CCCNC(=N)N)NC(=O)[C@H](CSSC[C@H](NC(=O)[C@@H](N)CC(=O)O)C(=O)N[C@@H](CC(C)C)C(=O)NCC(=O)N[C@@H](C)C(=O)N[C@@H](CCSC)C(=O)N[C@@H](CCCNC(=N)N)C(=O)N[C@@H](CCCCN)C(=O)N2)NC(=O)[C@H](CSSC[C@@H](C(=O)N[C@@H](CCCCN)C(=O)N[C@@H](Cc2ccc(O)cc2)C(=O)N[C@H](C(=O)N[C@@H](Cc2ccccc2)C(N)=O)C(C)C)NC(=O)[C@H](Cc2c[nH]c4ccccc24)NC(=O)[C@H](CCCCNC(N)=O)NC(=O)[C@H](Cc2c[nH]cn2)NC(=O)[C@H]([C@@H](C)O)NC(=O)[C@H](CCCNC(=N)N)NC(=O)[C@H](CO)NC3=O)NC(=O)[C@H](CCCCN)NC(=O)[C@H](CC(=O)O)NC(=O)[C@H](CC(N)=O)NC(=O)[C@H](CC(=O)O)NC(=O)[C@@H]2CCCN2C1=O [compound 749] (H-DCLGAMRKCIPDNDKCCRPNLVCSRTH[hCit]WCKYVF-NH2; disulfide 2-17, 9-23, 16-30)
IC50 (hNav1.3; use-dependent block, hNav1.3): 2300 nM
IC50 (hNav1.7; use-dependent block, hNav1.7): 790 nM
IC50 (hNav1.5; use-dependent block, hNav1.5): 20300 nM

CC[C@H](C)[C@@H]1NC(=O)[C@@H]2CSSC[C@@H]3NC(=O)[C@H](C(C)C)NC(=O)[C@H](CC(C)C)NC(=O)[C@H](CC(N)=O)NC(=O)[C@@H]4CCCN4C(=O)[C@H](CCCNC(=N)N)NC(=O)[C@H](CSSC[C@H](NC(=O)[C@@H](N)CC(=O)O)C(=O)N[C@@H](CC(C)C)C(=O)NCC(=O)N[C@@H](C)C(=O)N[C@@H](CC(C)C)C(=O)N[C@@H](CCCNC(=N)N)C(=O)N[C@@H](CCCCN)C(=O)N2)NC(=O)[C@H](CSSC[C@@H](C(=O)N[C@@H](CCCCN)C(=O)N[C@@H](Cc2ccc(O)cc2)C(=O)N[C@H](C(=O)N[C@@H](Cc2ccccc2)C(N)=O)C(C)C)NC(=O)[C@H](Cc2c[nH]c4ccccc24)NC(=O)[C@H](CCCCN)NC(=O)[C@H](Cc2c[nH]cn2)NC(=O)[C@H]([C@@H](C)O)NC(=O)[C@H](CCC(=O)O)NC(=O)[C@H](CO)NC3=O)NC(=O)[C@H](CCCCN)NC(=O)[C@H](CC(=O)O)NC(=O)[C@H](CC(N)=O)NC(=O)[C@H](CC(=O)O)NC(=O)[C@@H]2CCCN2C1=O [compound 734]
IC50 (hNav1.3; use-dependent block, hNav1.3): 9300 nM
IC50 (hNav1.7; use-dependent block, hNav1.7): 1800 nM
IC50 (hNav1.5; use-dependent block, hNav1.5): 41000 nM

CC[C@H](C)[C@@H]1NC(=O)[C@@H]2CSSC[C@@H]3NC(=O)[C@H](C(C)C)NC(=O)[C@H](CC(C)C)NC(=O)[C@H](CC(N)=O)NC(=O)[C@@H]4CCCN4C(=O)[C@H](CCCNC(=N)N)NC(=O)[C@H](CSSC[C@H](NC(=O)[C@@H](N)CC(=O)O)C(=O)N[C@@H](CC(C)C)C(=O)NCC(=O)N[C@@H](Cc4ccccc4)C(=O)N[C@@H](CCSC)C(=O)N[C@@H](CCCNC(=N)N)C(=O)N[C@@H](CCCCN)C(=O)N2)NC(=O)[C@H](CSSC[C@@H](C(=O)N[C@@H](CCCCN)C(=O)N[C@@H](Cc2ccc(O)cc2)C(=O)N[C@H](C(=O)N[C@@H](Cc2ccccc2)C(N)=O)C(C)C)NC(=O)[C@H](Cc2c[nH]c4ccccc24)NC(=O)[C@H](CCCCN)NC(=O)[C@H](Cc2c[nH]cn2)NC(=O)[C@@H]2CCCN2C(=O)[C@H](CCCNC(=N)N)NC(=O)[C@H](CO)NC3=O)NC(=O)[C@H](CCCCN)NC(=O)[C@H](CC(=O)O)NC(=O)[C@H](CC(N)=O)NC(=O)[C@H](CC(=O)O)NC(=O)[C@@H]2CCCN2C1=O [compound 345] (H-DCLGFMRKCIPDNDKCCRPNLVCSRPHKWCKYVF-NH2; disulfide 2-17, 9-23, 16-30)
IC50 (hNav1.3; Table 22, use, […]): 160 nM
IC50 (hNav1.7; Table 22, use, […]): 180 nM
IC50 (hNav1.5; Table 22, use, […]): 6650 nM
